Results published in EP1285918A1, “C7 Ester substituted taxanes as antitumor agents” (Florida State University Research Foundation, Inc., priority 2001, dated 2003).

What follows are compounds tested on HCT116 (assay: In Vitro cytotoxicity measured by the cell colony formation assay). Conditions: Homo sapiens, HCT-116; 72 h drug incubation, colonies counted after 7 days; concentration producing 50% inhibition of colony formation; read-out: IN VITRO ID 50 (nm) HCT116.
Type: cell-based
Procedure: In Vitro cytotoxicity measured by the cell colony formation assay
Four hundred cells (HCT116) were plated in 60 mm Petri dishes containing 2.7 mL of medium (modified McCoy's 5a medium containing 10% fetal bovine serum and 100 units/mL penicillin and […] streptomycin). The cells were incubated in a CO2 incubator at 37 °C for 5 h for attachment to the bottom of Petri dishes. The compounds identified in Example 2 were made up fresh in medium at ten times the final concentration, and then 0.3 mL of this stock solution was added to the 2.7 mL of medium in the dish. The cells were then incubated with drugs for 72 h at 37 ° C. At the end of incubation the drug-containing media were decanted, the dishes were rinsed with 4 mL of Hank's Balance Salt Solution (HBSS), 5 mL of fresh medium was added, and the dishes were returned to the incubator for colony formation. The cell colonies were counted using a colony counter after incubation for 7 days. Cell survival was calculated and the values of ID50 (the drug concentration producing 50% inhibition of colony formation) were determined for each tested compound.
With CCC(=O)O[C@H]1C[C@H]2OC[C@@]2(OC(C)=O)[C@H]2[C@H](OC(=O)c3ccccc3)[C@]3(O)C[C@H](OC(=O)[C@H](O)[C@H](C=C(C)C)NC(=O)OCC(C)C)C(C)=C([C@@H](O)C(=O)[C@]12C)C3(C)C [Compound 5121] the IC50 was 21.1 nM.
Work on CCCC(=O)O[C@H]1C[C@H]2OC[C@@]2(OC(C)=O)[C@H]2[C@H](OC(=O)c3ccccc3)[C@]3(O)C[C@H](OC(=O)[C@H](O)[C@@H](NC(=O)OCC(C)C)c4ccoc4)C(C)=C([C@@H](O)C(=O)[C@]12C)C3(C)C [Compound 4828] yielded an IC50 of under 10 nM.
Compound CCCC(=O)OC1CC2OCC2(OC(C)=O)C2C(OC(=O)c3ccccc3)C3(O)CC(OC(=O)C(O)C(NC(=O)C=C(C)C)c4cccs4)C(C)=C(C(O)C(=O)C12C)C3(C)C (stereo not drawn) [Compound 4283] has an IC50 of under 1 nM.
For CCC(C)(C)OC(=O)N[C@@H](c1ccco1)[C@@H](O)C(=O)O[C@H]1C[C@@]2(O)[C@@H](OC(=O)c3ccccc3)[C@@H]3[C@]4(OC(C)=O)CO[C@@H]4C[C@H](OC(=O)C(C)C)[C@@]3(C)C(=O)[C@H](O)C(=C1C)C2(C)C [Compound 6252], the IC50 was under 1 nM.
CCCC(=O)O[C@H]1C[C@H]2OC[C@@]2(OC(C)=O)[C@H]2[C@H](OC(=O)c3ccccc3)[C@]3(O)C[C@H](OC(=O)[C@H](O)[C@@H](NC(=O)c4cccs4)c4cccs4)C(C)=C([C@@H](O)C(=O)[C@]12C)C3(C)C [Compound 4454] was tested, and the IC50 was under 1 nM.
Compound C/C=C/C(=O)N[C@@H](c1ccoc1)[C@@H](O)C(=O)O[C@H]1C[C@@]2(O)[C@@H](OC(=O)c3ccccc3)[C@@H]3[C@]4(OC(C)=O)CO[C@@H]4C[C@H](OC(=O)CCC)[C@@]3(C)C(=O)[C@H](O)C(=C1C)C2(C)C [Compound 4939] has an IC50 of under 1 nM.
In the case of CCC(=O)OC1CC2OCC2(OC(C)=O)C2C(OC(=O)c3ccccc3)C3(O)CC(OC(=O)C(O)C(NC(=O)c4cccs4)c4ccco4)C(C)=C(C(O)C(=O)C12C)C3(C)C (stereo not drawn) [Compound 3632], the IC50 is reported as under 1 nM.
For C/C=C/C(=O)N[C@@H](c1cccs1)[C@@H](O)C(=O)O[C@H]1C[C@@]2(O)[C@@H](OC(=O)c3ccccc3)[C@@H]3[C@]4(OC(C)=O)CO[C@@H]4C[C@H](OC(=O)CC)[C@@]3(C)C(=O)[C@H](O)C(=C1C)C2(C)C [Compound 3560], the IC50 was under 1 nM.
In the case of CCCC(=O)O[C@H]1C[C@H]2OC[C@@]2(OC(C)=O)[C@H]2[C@H](OC(=O)c3ccccc3)[C@]3(O)C[C@H](OC(=O)[C@H](O)[C@@H](NC(=O)OC(C)(C)CC)c4ccco4)C(C)=C([C@@H](O)C(=O)[C@]12C)C3(C)C [Compound 6272], the IC50 is reported as under 1 nM.
Work on C/C=C/C(=O)N[C@@H](c1ccco1)[C@@H](O)C(=O)O[C@H]1C[C@@]2(O)[C@@H](OC(=O)c3ccccc3)[C@@H]3[C@]4(OC(C)=O)CO[C@@H]4C[C@H](OC(=O)C(C)C)[C@@]3(C)C(=O)[C@H](O)C(=C1C)C2(C)C [Compound 6202] yielded an IC50 of under 1 nM.
Work on CCCC(=O)O[C@H]1C[C@H]2OC[C@@]2(OC(C)=O)[C@H]2[C@H](OC(=O)c3ccccc3)[C@]3(O)C[C@H](OC(=O)[C@H](O)[C@@H](NC(=O)c4ccccc4)c4cccs4)C(C)=C([C@@H](O)C(=O)[C@]12C)C3(C)C [Compound 4414] yielded an IC50 of under 1 nM.
Compound CCCC(=O)OC1CC2OCC2(OC(C)=O)C2C(OC(=O)c3ccccc3)C3(O)CC(OC(=O)C(O)C(NC(=O)OCC(C)C)c4cccs4)C(C)=C(C(O)C(=O)C12C)C3(C)C (stereo not drawn) [Compound 4290] has an IC50 of under 10 nM.
CCCC(=O)N[C@@H](c1ccco1)[C@@H](O)C(=O)O[C@H]1C[C@@]2(O)[C@@H](OC(=O)c3ccccc3)[C@@H]3[C@]4(OC(C)=O)CO[C@@H]4C[C@H](OC(=O)CC)[C@@]3(C)C(=O)[C@H](O)C(=C1C)C2(C)C [Compound 3171] was tested, and the IC50 was under 1 nM.
With CCCC(=O)O[C@H]1C[C@H]2OC[C@@]2(OC(C)=O)[C@H]2[C@H](OC(=O)c3ccccc3)[C@]3(O)C[C@H](OC(=O)[C@H](O)[C@H](C=C(C)C)NC(=O)OCC(C)C)C(C)=C([C@@H](O)C(=O)[C@]12C)C3(C)C [Compound 5131] the IC50 was under 10 nM.
CCC(=O)OC1CC2OCC2(OC(C)=O)C2C(OC(=O)c3ccccc3)C3(O)CC(OC(=O)C(O)C(NC(=O)C=C(C)C)c4cccs4)C(C)=C(C(O)C(=O)C12C)C3(C)C (stereo not drawn) [Compound 4312] was tested, and the IC50 was under 1 nM.
Work on CCCC(=O)O[C@H]1C[C@H]2OC[C@@]2(OC(C)=O)[C@H]2[C@H](OC(=O)c3ccccc3)[C@]3(O)C[C@H](OC(=O)[C@H](O)[C@@H](NC(=O)OCC(C)C)C4CC4)C(C)=C([C@@H](O)C(=O)[C@]12C)C3(C)C [Compound 5202] yielded an IC50 of under 10 nM.
For CCC(=O)O[C@H]1C[C@H]2OC[C@@]2(OC(C)=O)[C@H]2[C@H](OC(=O)c3ccccc3)[C@]3(O)C[C@H](OC(=O)[C@H](O)[C@@H](NC(=O)OCC(C)C)c4ccco4)C(C)=C([C@@H](O)C(=O)[C@]12C)C3(C)C [Compound 3196], the IC50 was under 10 nM.
With CCC(=O)O[C@H]1C[C@H]2OC[C@@]2(OC(C)=O)[C@H]2[C@H](OC(=O)c3ccccc3)[C@]3(O)C[C@H](OC(=O)[C@H](O)[C@@H](NC(=O)OC(C)(C)C)c4ccncc4)C(C)=C([C@@H](O)C(=O)[C@]12C)C3(C)C [Compound 1386] the IC50 was under 1 nM.
CCC(=O)O[C@H]1C[C@H]2OC[C@@]2(OC(C)=O)[C@H]2[C@H](OC(=O)c3ccccc3)[C@]3(O)C[C@H](OC(=O)[C@H](O)[C@@H](NC(=O)OC(C)(C)C)c4cccnc4)C(C)=C([C@@H](O)C(=O)[C@]12C)C3(C)C [Compound 1372] gave an IC50 of 26.1 nM.
C/C=C/C(=O)O[C@H]1C[C@H]2OC[C@@]2(OC(C)=O)[C@H]2[C@H](OC(=O)c3ccccc3)[C@]3(O)C[C@H](OC(=O)[C@H](O)[C@@H](NC(=O)OC(C)(C)C)c4cccs4)C(C)=C([C@@H](O)C(=O)[C@]12C)C3(C)C [Compound 6686] gave an IC50 of under 1 nM.
CCOC(=O)NC(c1cccs1)C(O)C(=O)OC1CC2(O)C(OC(=O)c3ccccc3)C3C4(OC(C)=O)COC4CC(OC(=O)CC)C3(C)C(=O)C(O)C(=C1C)C2(C)C (stereo not drawn) [Compound 4044] gave an IC50 of under 1 nM.
Compound CCC(=O)O[C@H]1C[C@H]2OC[C@@]2(OC(C)=O)[C@H]2[C@H](OC(=O)c3ccccc3)[C@]3(O)C[C@H](OC(=O)[C@H](O)[C@@H](NC(=O)c4cccs4)c4cccs4)C(C)=C([C@@H](O)C(=O)[C@]12C)C3(C)C [Compound 3479] has an IC50 of under 1 nM.
For CCC(=O)O[C@H]1C[C@H]2OC[C@@]2(OC(C)=O)[C@H]2[C@H](OC(=O)c3ccccc3)[C@]3(O)C[C@H](OC(=O)[C@H](O)[C@@H](NC(=O)OC(C)(C)C)c4ccccn4)C(C)=C([C@@H](O)C(=O)[C@]12C)C3(C)C [Compound 1364], the IC50 was under 10 nM.
Compound CCC(=O)O[C@H]1C[C@H]2OC[C@@]2(OC(C)=O)[C@H]2[C@H](OC(=O)c3ccccc3)[C@]3(O)C[C@H](OC(=O)[C@H](O)[C@@H](NC(=O)c4ccco4)c4cccs4)C(C)=C([C@@H](O)C(=O)[C@]12C)C3(C)C [Compound 3069] has an IC50 of under 1 nM.
For CCCC(=O)OC1CC2OCC2(OC(C)=O)C2C(OC(=O)c3ccccc3)C3(O)CC(OC(=O)C(O)C(C=C(C)C)NC(=O)OC(C)(C)C)C(C)=C(C(O)C(=O)C12C)C3(C)C (stereo not drawn) [Compound 4406], the IC50 was under 1 nM.
C/C=C/C(=O)N[C@@H](c1ccoc1)[C@@H](O)C(=O)O[C@H]1C[C@@]2(O)[C@@H](OC(=O)c3ccccc3)[C@@H]3[C@]4(OC(C)=O)CO[C@@H]4C[C@H](OC(=O)CC)[C@@]3(C)C(=O)[C@H](O)C(=C1C)C2(C)C [Compound 4898] was tested, and the IC50 was under 1 nM.
CC(=O)O[C@@]12CO[C@@H]1C[C@H](OC(=O)C(C)C)[C@@]1(C)C(=O)[C@H](O)C3=C(C)[C@@H](OC(=O)[C@H](O)[C@@H](NC(=O)OC(C)(C)C)c4cccs4)C[C@@](O)([C@@H](OC(=O)c4ccccc4)[C@H]21)C3(C)C [Compound 6333] showed an IC50 of under 1 nM.
